Experiments:
[1] = system: skin hair follicles and sebaceous glands of rats; assay: Rat hair loss model: histopathological grading of skin hair follicles and sebaceous glands; type: in vivo, Wistar rats; settings: 60 days, 10 rats per group; for number of rats with hair follicle and sebaceous gland grade +++: grade +++ (most severe); for number of rats with hair follicle and sebaceous gland grade ±: grade ± (lesions limited); for number of rats with hair follicle and sebaceous gland grade −: grade − (normal structure)
From the text: Wistar rats were, according to weights, randomly divided into the negative control group (75% ethanol for external use), model group (75% ethanol for external use), positive control group (external 5% minoxidil tincture), CLY-1 external treatment group (external 5% CLY-1 tincture), CLY-2 external treatment group (external 5% CLY-2 tincture), CLY-3 external treatment group (external 5% CLY-3 tincture), CLY-4 external treatment group (external 5% CLY-4 tincture), and CLY-5 external treatment group (external 5% CLY-5 tincture) according to their body weight CLY-8 external treatment group (external 5% CLY-8 tincture), CLY-11 external treatment group (external 5% CLY-11 tincture), CLY-19 external treatment group (external 5% CLY-19 tincture), CLY-36 external treatment group (external 5% CLY-36 tincture), CLY-39 external treatment group (external 5% CLY-39 tincture), CLY-1 intravenous injection group (2 mg/kg·d), CLY-3 intravenous injection group (2 mg/kg·d), CLY-4 intravenous injection group (2 mg/kg·d) CLY-5 intravenous injection group (2 mg/kg·d), CLY-8 intravenous injection group (2 mg/kg·d), CLY-11 intravenous injection group (2 mg/kg·d), CLY-19 intravenous injection group (2 mg/kg·d), CLY-36 intravenous injection group (2 mg/kg·d), and CLY-39 intravenous injection group (2 mg/kg·d), with 10 rats in each group. Before the experiment, an area of 4 cm×5 cm was selected on each rat on the back of the neck to remove hair as the observation area. In addition to the negative control group, rats were subcutaneously injected with testosterone propionate injection [5 ml/(kg·d)] once a day for 60 days to establish the androgenic alopecia (AGA) model. […] At the same time, the drug was applied to the observation area on the back of the rats in the corresponding drug group at the rate of 2 mL/(one time), twice a day, at an interval of 8 hours; Intravenous administration once a day. The negative control group and the model control group were smeared with 75% ethanol solution, 2 mL/(one rat per time), twice a day, for 60 days.
Took 10 hairs from the observation area on the back of each rat every 15 days after administration, and measured the hair length with a vernier caliper. After 60 days of administration, the skin of the experimental observation area was taken for routine tissue dehydration, paraffin embedding, HE staining, and light microscopy to observe the histopathological changes of the rat skin hair follicles and sebaceous glands. Semi-quantitative analysis was performed for each group. The grading criteria are as follows: the normal structure of dermal tissue cells, subcutaneous hair follicles, and sebaceous glands is marked as […]: no hyperplasia of dermal tissue is found, the lesions of hair follicles and sebaceous glands are limited, and no inflammation is found under the skin is marked as “+”: no obvious hyperplasia of dermal tissue is found, and the follicles are obviously cystic. No obvious hyperplasia of sebaceous glands is found, and no inflammation is found under the skin is marked as “+”: the dermal tissue has segmental hyperplasia, which is not obvious, A small number of hair follicles have cystic changes, and the sebaceous glands have mild hyperplasia and hypertrophy. There is no obvious inflammation under the skin, which is marked as “++”: the dermal tissue cells of the skin have different degrees of segmental hyperplasia, and some hair follicles have cystic changes, showing uneven size of hair follicles, and no cells around. The sebaceous glands have hyperplasia, and the nuclei in the proliferative glands are few. A few rats have mild inflammatory hyperplasia under the skin, which is marked as “+++”.

[2] = system: rat scar model; assay: Rat scar model (skin wound healing); type: in vivo; settings: rat back wound 2.4 cm; 0.5% cream on the skin
From the text: 1.1 Preparation method of treatment cream: The excipient matrix components included methyl silicone oil (15%), stearic acid (6%), white vaseline (5%), liquid paraffin (5%), octadecanol (5%), glycerin (20%), alkylaryl polyglycol ether (1%), fatty alcohol polyoxyethylene ether (1%), […] (1%), ethyl paraben (0.1%), distilled water (about 31-55%), and mixed with appropriate amount of CLY series compounds to form a mixed emulsion. The emulsion matrix used in this embodiment refers to the matrix component after the active ingredient was removed from the emulsion.
1.2 Grouping and modeling of experimental animals: SPF grade male rats, weighing (210±28) g, from the Animal Center of Nanyi University. The rats were numbered according to their body weight and using the random array method, samples were divided into the model control group (applied cream matrix), CLY-1 treatment group (applied 0.5% CLY-1 cream on the skin), CLY-2 treatment group (applied 0.5% CLY-2 cream on the skin), CLY-3 treatment group (0.5% CLY-3 cream on the skin), CLY-4 treatment group (0.5% CLY-4 cream on the skin), CLY-8 treatment group (0.5% CLY-8 cream on the skin), CLY-11 treatment group (0.5% CLY-11 cream on the skin) CLY-19 treatment group (0.5% CLY-19 cream on the skin), CLY-36 treatment group (0.5% CLY-36 cream on the skin), and CLY-39 treatment group (0.5% CLY-39 cream on the skin), 6 in each group. Rats in each group were anesthetized by intraperitoneal injection of 2% pentobarbital sodium (120 mg/kg) and fixed on the operating table, and then chose a piece of 4×5 cm of intact skin on the back, 8% sodium sulfide hair removal, used tissue scissors to cut a wound with a diameter of 2.4 cm and a depth of muscle fascia at the hair removal site, and damage part of the muscle surface fascia. Animals were kept in separate cages to prevent rats from biting and licking. Applied 2% iodine tincture daily to the wound for routine disinfection, and observed the wound healing of rats.
The wounds were routinely disinfected every day, and the wounds of rats were observed on the 1st, 3rd, 5th, 7th, 12th, and 20th days. […] On the 12th day, the wounds in each treatment group had basically recovered, while the model group still had about 0.5 cm2 of wounds. By the 20th day, the wounds in each group had recovered, and the model control group left obvious scars, while each treatment group only left different amounts of pigmentation.

SMILES | number of rats with hair follicle and sebaceous gland grade +++ ([1]; external 5% tincture) | number of rats with hair follicle and sebaceous gland grade +++ ([1]; intravenous 2 mg/kg·d) | number of rats with hair follicle and sebaceous gland grade ++ ([1]; external 5% tincture) | number of rats with hair follicle and sebaceous gland grade ++ ([1]; intravenous 2 mg/kg·d) | number of rats with hair follicle and sebaceous gland grade + ([1]; external 5% tincture) | number of rats with hair follicle and sebaceous gland grade + ([1]; intravenous 2 mg/kg·d) | number of rats with hair follicle and sebaceous gland grade ± ([1]; external 5% tincture) | number of rats with hair follicle and sebaceous gland grade ± ([1]; intravenous 2 mg/kg·d) | number of rats with hair follicle and sebaceous gland grade − ([1]; external 5% tincture) | number of rats with hair follicle and sebaceous gland grade − ([1]; intravenous 2 mg/kg·d) | skin wound healing and scar formation [2]
CN1CCC[C@@H](N(C(=O)c2ccc(-n3nnc4cccnc43)cc2)c2ncccc2Cl)C1 [CLY-1, (R)-4-(3H-[1,2,3]triazolo[4,5-b]pyridin-3-yl)-N-(3-chloropyridin-2-yl)-N-(1-methylpiperidin-3-yl)benzamide] | 0 | 0 | 1 | 0 | 4 | 4 | 5 | 6 | 0 | 0 | significantly promote skin wound healing and reduce scar formation
CCN1CCC[C@@H](N(C(=O)c2ccc(-n3nnc4cccnc43)cc2)c2ncccc2Cl)C1 [CLY-2, (R)-4-(3H-[1,2,3]triazolo[4,5-b]pyridin-3-yl)-N-(3-chloropyridin-2-yl)-N-(1-ethylpiperidin-3-yl)benzamide] | 0 | 0 | 1 | 0 | 3 | 3 | 6 | 7 | 0 | 0 | significantly promote skin wound healing and reduce scar formation
CNC1CCCC(N(C(=O)c2ccc(-n3nnc4cccnc43)cc2)c2ncccc2Cl)C1 (stereo not drawn) [CLY-3] | 0 | 0 | 1 | 1 | 5 | 4 | 4 | 5 | 0 | 0 | significantly promote skin wound healing and reduce scar formation
O=C(c1ccc(-n2nnc3cccnc32)cc1)N(c1ncccc1Cl)C1CCCC(O)C1 (stereo not drawn) [CLY-4] | 0 | 0 | 3 | 1 | 4 | 5 | 3 | 4 | 0 | 0 | significantly promote skin wound healing and reduce scar formation
COC1CCCC(N(C(=O)c2ccc(-n3nnc4cccnc43)cc2)c2ncccc2Cl)C1 (stereo not drawn) [CLY-5] | 0 | 0 | 0 | 0 | 4 | 2 | 6 | 8 | 0 | 0 | 
O=C(c1ccc(-n2nnc3cccnc32)cc1)N(c1ncccc1Cl)[C@@H]1CCNC1 [CLY-8, (R)-4-(3H-[1,2,3]triazolo[4,5-b]pyridin-3-yl)-N-(3-chloropyridin-2-yl)-N-(pyrrolidin-3-yl)benzamide] | 0 | 0 | 0 | 0 | 3 | 2 | 7 | 8 | 0 | 0 | significantly promote skin wound healing and reduce scar formation
NC1CCCC(N(C(=O)c2ccc(-n3nnc4cccnc43)cc2)c2ncccc2Cl)C1 (stereo not drawn) [CLY-11] | 0 | 0 | 1 | 1 | 4 | 3 | 5 | 6 | 0 | 0 | significantly promote skin wound healing and reduce scar formation
Nc1cc(N2CCCCC2)nc(N)[n+]1[O-] [Positive control group, minoxidil, reference compound] | 1 |  | 3 |  | 4 |  | 2 |  | 0 |  | 
